Strand notation (5' to 3'): a small letter for the sugar, then the base; units joined by * are phosphorothioate-linked, units joined directly phosphodiester-linked; [ ] holds rarer units or linkages, { } end groups; capitals alone tell only the bases. e = 2'-O-(2-methoxyethyl) (MOE); [5mC] = 5-methylcytosine; d = 2'-deoxy (DNA)
system: human Factor 7 mRNA; test: Antisense inhibition of human Factor 7 mRNA in HepB3 cells, 50 nM antisense oligonucleotide, lipofectin; assay type: cell-based; conditions: Table 1, 50 nM, lipofectin, approximately 24 hours, relative to untreated control cells
How it was run: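 Percent inhibition, untreated cells as reference: derived from RNA collected about 24 hours post-transfection of 4,000-cell wells, with the human RTS 2927 primer probe set and adjustment for total RNA content (RIBOGREEN®).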

How did the “% Inhibition” value turn out when “407596 (antisense eG*eA*eG*eG*e[5mC]*d[5mC]*d[5mC]*d[5mC]*dG*dG*d[5mC]*dT*dT*d[5mC]*d[5mC]*eA*e[5mC]*eG*eG*e[5mC]) [compound 407596]” was run?
The value was 61%.

“407612 (antisense eA*eG*eA*eT*e[5mC]*dA*dG*d[5mC]*dT*dG*dG*dT*d[5mC]*dA*dT*e[5mC]*e[5mC]*eT*eT*eG) [compound 407612]” was tested. Which “% Inhibition” value did it give?
The value was 82%.

“407901 (antisense eT*eG*eG*eT*eG*dT*dT*dG*dA*dT*d[5mC]*dA*dG*dG*dG*eT*e[5mC]*e[5mC]*e[5mC]*e[5mC]) [compound 407901]” was tested. Which “% Inhibition” value did it give?
The value was 89%.

“407915 (antisense eG*eT*eT*eG*e[5mC]*dG*d[5mC]*dA*dG*d[5mC]*d[5mC]*d[5mC]*dT*dG*dG*e[5mC]*e[5mC]*e[5mC]*e[5mC]*eA) [compound 407915]” was tested. Which “% Inhibition” value did it give?
Its value is 83%.

“407906 (antisense eA*e[5mC]*e[5mC]*eA*e[5mC]*dG*dG*dG*d[5mC]*dT*dG*dG*dT*dG*d[5mC]*eA*eG*eG*e[5mC]*eG) [compound 407906]” was tested. Which “% Inhibition” value did it give?
Its value is 4%.

How did the “% Inhibition” value turn out when “407651 (antisense eA*eG*e[5mC]*e[5mC]*eT*d[5mC]*dA*dA*dA*d[5mC]*dA*dT*d[5mC]*dT*dA*eT*e[5mC]*eA*eA*eA) [compound 407651]” was run?
The value was 32%.

same assay, conditions: Table 6, 50 nM, lipofectin, approximately 24 hours

How did the “% Inhibition” value turn out when “422267 (antisense eG*e[5mC]*dG*d[5mC]*dG*dG*dA*dA*dG*dA*dA*dG*dG*dG*dA*e[5mC]*eG*eG*eA*eA) [compound 422267]” was run?
The value was 38%.

Which “% Inhibition” value does the source give for “422122 (antisense eA*eG*e[5mC]*eG*e[5mC]*dG*dG*dA*dA*dG*dA*dA*dG*dG*dG*eA*e[5mC]*eG*eG*eA) [compound 422122]” here?
Its value is 24%.

With “422271 (antisense e[5mC]*eT*dG*dA*dG*d[5mC]*dG*d[5mC]*dG*dG*dA*dA*dG*dA*dA*eG*eG*eG*eA*e[5mC]) [compound 422271]” as the substance, how does the “% Inhibition” value read?
The value was 32%.

same assay, conditions: gapmers targeted to nucleobases 4868 to 4899 of SEQ ID NO: 1, Table 8

How did the “% Inhibition of human Factor 7 mRNA levels” value turn out when “422222 (antisense eA*eG*e[5mC]*d[5mC]*d[5mC]*dG*dA*dG*dT*dT*d[5mC]*dT*dG*d[5mC]*dA*dG*dG*eA*eG*e[5mC]) [compound 422222]” was run?
Its value is 55%.

How did the “% Inhibition of human Factor 7 mRNA levels” value turn out when “422219 (antisense e[5mC]*e[5mC]*eG*dA*dG*dT*dT*d[5mC]*dT*dG*d[5mC]*dA*dG*dG*dA*dG*d[5mC]*eG*eG*e[5mC]) [compound 422219]” was run?
The value was 65%.

How did the “% Inhibition of human Factor 7 mRNA levels” value turn out when “422141 (antisense eA*eG*eT*eT*e[5mC]*dT*dG*d[5mC]*dA*dG*dG*dA*dG*d[5mC]*dG*eG*e[5mC]*e[5mC]*eT*eA) [compound 422141]” was run?
Its value is 64%.

For “422223 (antisense eG*eA*eG*d[5mC]*d[5mC]*d[5mC]*dG*dA*dG*dT*dT*d[5mC]*dT*dG*d[5mC]*dA*dG*eG*eA*eG) [compound 422223]”, which “% Inhibition of human Factor 7 mRNA levels” value is on record?
The value was 48%.

same assay, conditions: lipofectin, 50 nM antisense oligonucleotide, approximately 24 hours, Factor 7 mRNA by real-time RT-PCR (RTS 2927), relative to untreated control

How did the “% Inhibition” value turn out when “416547 (antisense eA*eT*eG*eA*eA*dA*dT*dT*d[5mC]*dT*dA*d[5mC]*d[5mC]*dT*dA*eA*eA*eG*eA*eT) [compound 416547]” was run?
Its value is 0%.

With “416527 (antisense eG*eA*eG*e[5mC]*eT*dT*d[5mC]*d[5mC]*d[5mC]*dA*dA*dG*dT*dT*dG*eG*e[5mC]*eA*eG*eT) [compound 416527]” as the substance, how does the “% Inhibition” value read?
The value was 49%.

With “416465 (antisense e[5mC]*eA*e[5mC]*eT*eG*dT*d[5mC]*d[5mC]*d[5mC]*d[5mC]*d[5mC]*dT*dT*dG*d[5mC]*eA*eG*eG*eA*eG) [compound 416465]” as the substance, how does the “% Inhibition” value read?
The value was 51%.

For “416524 (antisense eT*eA*eA*eT*eT*dT*dA*dA*dT*dA*dT*dT*d[5mC]*dA*dG*eA*eT*eG*eG*eT) [compound 416524]”, which “% Inhibition” value is on record?
Its value is 0%.

“416499 (antisense eG*eA*eG*eA*eG*d[5mC]*dT*dG*d[5mC]*dA*d[5mC]*d[5mC]*dT*dG*dG*e[5mC]*e[5mC]*eG*eG*e[5mC]) [compound 416499]” was tested. Which “% Inhibition” value did it give?
The value was 7%.

How did the “% Inhibition” value turn out when “416510 (antisense eG*eA*e[5mC]*eG*eA*dG*dG*d[5mC]*d[5mC]*dT*d[5mC]*dA*dG*dG*dT*eG*eG*eA*e[5mC]*eG) [compound 416510]” was run?
The value was 30%.

How did the “% Inhibition” value turn out when “416544 (antisense eA*eT*e[5mC]*e[5mC]*e[5mC]*dA*dT*dT*dT*dT*d[5mC]*d[5mC]*d[5mC]*dA*dG*eG*eA*eG*e[5mC]*e[5mC]) [compound 416544]” was run?
Its value is 58%.

For “416491 (antisense eG*eA*eG*eA*eA*dG*dG*dG*dT*dT*dG*d[5mC]*dA*dG*dG*e[5mC]*eA*eG*eG*eA) [compound 416491]”, which “% Inhibition” value is on record?
The value was 2%.

For “416511 (antisense eT*eT*eG*e[5mC]*eT*dG*dG*dG*dA*dG*dG*dA*d[5mC]*dG*dA*eG*eG*e[5mC]*e[5mC]*eT) [compound 416511]”, which “% Inhibition” value is on record?
Its value is 35%.

How did the “% Inhibition” value turn out when “416443 (antisense eG*eA*eG*eG*e[5mC]*dA*dG*dA*dA*dG*d[5mC]*dA*dG*dA*dT*eA*eT*eA*eG*eG) [compound 416443]” was run?
The value was 17%.

Which “% Inhibition” value does the source give for “416451 (antisense eG*e[5mC]*e[5mC]*eA*eT*dG*dG*dA*d[5mC]*dA*d[5mC]*dT*d[5mC]*d[5mC]*d[5mC]*e[5mC]*eT*eT*eT*eG) [compound 416451]” here?
The value was 75%.

For “416521 (antisense e[5mC]*eA*e[5mC]*e[5mC]*e[5mC]*d[5mC]*dA*d[5mC]*d[5mC]*dA*dG*dG*dT*dT*dG*eT*eG*e[5mC]*eA*e[5mC]) [compound 416521]”, which “% Inhibition” value is on record?
The value was 36%.

same assay, conditions: oligonucleotides targeted to nucleobases 11830 to 11869 of SEQ ID NO: 1 (Table 9)

“422245 (antisense eT*eG*dA*dG*dG*dA*dG*dA*d[5mC]*dA*dA*dT*dG*dG*dT*e[5mC]*eA*eG*eG*eG) [compound 422245]” was tested. Which “% Inhibition (human Factor 7 mRNA levels)” value did it give?
Its value is 24%.

“422094 (antisense e[5mC]*eA*eA*eT*eG*dG*dT*d[5mC]*dA*dG*dG*dG*d[5mC]*dT*dG*eG*eT*eT*eT*eT) [compound 422094]” was tested. Which “% Inhibition (human Factor 7 mRNA levels)” value did it give?
Its value is 48%.

How did the “% Inhibition (human Factor 7 mRNA levels)” value turn out when “422235 (antisense eA*eT*dG*dG*dT*d[5mC]*dA*dG*dG*dG*d[5mC]*dT*dG*dG*dT*eT*eT*eT*eG*eG) [compound 422235]” was run?
Its value is 50%.

How did the “% Inhibition (human Factor 7 mRNA levels)” value turn out when “422251 (antisense eG*e[5mC]*dT*dG*dG*d[5mC]*dT*dG*dA*dG*dG*dA*dG*dA*d[5mC]*eA*eA*eT*eG*eG) [compound 422251]” was run?
The value was 36%.

same assay, conditions: oligonucleotides targeted to nucleobases 13760 to 13789 of SEQ ID NO: 1 (Table 10)

With “422113 (antisense eG*e[5mC]*e[5mC]*eA*e[5mC]*d[5mC]*d[5mC]*dG*d[5mC]*d[5mC]*dG*dG*d[5mC]*dT*d[5mC]*eT*eG*e[5mC]*eT*e[5mC]) [compound 422113]” as the substance, how does the “% Inhibition (human Factor 7 mRNA levels)” value read?
The value was 68%.

With “422181 (antisense eG*e[5mC]*e[5mC]*dA*d[5mC]*d[5mC]*d[5mC]*dG*d[5mC]*d[5mC]*dG*dG*d[5mC]*dT*d[5mC]*dT*dG*e[5mC]*eT*e[5mC]) [compound 422181]” as the substance, how does the “% Inhibition (human Factor 7 mRNA levels)” value read?
The value was 66%.

same assay, conditions: oligonucleotides targeted to nucleobases 14707 to 14732 of SEQ ID NO: 1 (Table 11)

With “422201 (antisense eG*e[5mC]*e[5mC]*dT*dG*dA*dG*dG*d[5mC]*d[5mC]*dA*dG*d[5mC]*dA*dG*dA*dT*e[5mC]*eA*e[5mC]) [compound 422201]” as the substance, how does the “% Inhibition (human Factor 7 mRNA levels)” value read?
The value was 71%.

For “422205 (antisense eA*eG*e[5mC]*dA*dG*d[5mC]*d[5mC]*dT*dG*dA*dG*dG*d[5mC]*d[5mC]*dA*dG*d[5mC]*eA*eG*eA) [compound 422205]”, which “% Inhibition (human Factor 7 mRNA levels)” value is on record?
The value was 63%.

same assay, conditions: oligonucleotides targeted to nucleobases 15098 to 15122 of SEQ ID NO: 1 (Table 12)

How did the “% Inhibition (human Factor 7 mRNA levels)” value turn out when “422136 (antisense e[5mC]*eA*eG*e[5mC]*eA*d[5mC]*dA*d[5mC]*dA*dT*dG*dG*dA*dG*dT*e[5mC]*eA*eG*e[5mC]*eA) [compound 422136]” was run?
Its value is 57%.

With “422207 (antisense e[5mC]*eA*e[5mC]*dA*d[5mC]*dA*dT*dG*dG*dA*dG*dT*d[5mC]*dA*dG*d[5mC]*dA*eT*e[5mC]*eG) [compound 422207]” as the substance, how does the “% Inhibition (human Factor 7 mRNA levels)” value read?
Its value is 41%.

Reference: patent US9029337B2, “Modulation of factor 7 expression” (Isis Pharmaceuticals, Inc., priority 2007, dated 2015)
